“Also recorded” adds a separate entry of the source.

What all share (type): cell-based, human
Data set [1] deals with osteoblasts differentiated from CFC-MSCs. The data set is described as follows: ALP enzyme activity (ALP kit staining) in osteoblasts differentiated from CFC-MSCs. Particulars: treated on day 1 for 24 hours (U0126 5 μM, SB-431542 5 μM, BMP4 50 ng/ml), measured on 7th day of differentiation, FIG. 13. Here is the method:
(§1) To differentiate into osteoblasts, the MSCs were treated with 0.25% trypsin-EDTA at 37° C. for 2 minutes and separated from the culture dish. The cells were spread on a 4-well culture dish at the density of 2.5×10^4 cells/cm^2, which were cultured in MSC culture medium at 37° C. for 3 days until the cells were full. 3 days later, the medium was replaced with STEMPRO osteogenesis differentiation Medium (Invitrogen), and the medium was replaced every three days. The activity of ALP, which is an enzyme essential for the formation of hydroxyapatite, a major component of bone mineral, and an indicator of osteoblast differentiation, was investigated at 7 day intervals by using an ALP kit (Leucocyte Alkaline Phosphatase Kit, Sigma-Aldrich). […] The cells were washed with distilled water twice and the degree of color change into red was measured to investigate the calcium ion deposition.
(§2) Particularly, the differentiation of CFC-MSCs into osteoblasts was induced by the same manner as described in Experimental Example <2-2>. […] ALP enzyme activity was measured on the 7th day of the differentiation, and alizarin red S staining was performed on the 14th day of the differentiation by the same manner as described in Experimental Example <2-2>. […] After washing the cells with distilled water twice, the amount of calcium deposition was evaluated by the degree of darkening.

Data set [2] deals with osteoblasts differentiated from CFC-iPSCs. In words: Differentiation of CFC syndrome patient derived iPSCs into osteoblasts through mesenchymal stem cells. The conditions noted are these: CFC patient iPSC-derived cells; FIG. 13 to FIG. 15. From the text: […] The iPSCs derived from wild type (WT) individuals and the iPSCs derived from CFC syndrome patients were induced to be differentiated in vitro for about 30 days by referring to the protocol proposed in a previous paper (Mahmood, Harkness et al. 2010). Particularly, CFC-iPSC colony was divided into 4 to 9 sections (0.5 mm×0.5 mm/each section) by using a tissue chopper provided from Mickle Laboratory Engineering Co. The sections were treated with 10 mg/ml of dispase at 37° C. for 4 minutes and then the sections were detached from the cell culture dish. The separated cell sections were transferred in a Petri dish, followed by culture in EB medium (embryoid body differentiation medium), the Dulbecco's modified Eagle's medium (DMEM/F12) supplemented with 10% serum replacement (SR), 1% penicillin-streptomycin and 1% non-essential amino acids, for a day. […]
To differentiate into osteoblasts, the MSCs were treated with 0.25% trypsin-EDTA at 37° C. for 2 minutes and separated from the culture dish. […] The cells were washed with distilled water twice and the degree of color change into red was measured to investigate the calcium ion deposition. […]

Data set [3] has as its system osteoblasts differentiated from CFC-MSCs. In words: Bone mineral deposition (alizarin red S and von Kossa staining) in osteoblasts differentiated from CFC-MSCs. The conditions noted are these: treated on day 1 for 24 hours (U0126 5 μM, SB-431542 5 μM, BMP4 50 ng/ml), alizarin red S day 14, von Kossa day 21, FIG. 14. On the procedure:
as §1, §2

Regarding `NC(=O)c1ccc(-c2nc(-c3ccc4c(c3)OCO4)c(-c3ccccn3)[nH]2)cc1` [SB-431542], in data set [1], the ALP enzyme activity result is listed as “increase”. For the same molecule, the “differentiation ability into osteoblasts” value in data set [2] is on record as “improved; also recorded: efficient in improving the differentiation ability”. Moreover, the bone mineral deposition result in data set [3] is recorded as “increase”.

B1: BMP4: recombinant human bone morphogenic protein 4, BMP signaling pathway activator, SEQ. ID. NO: 13 (R&D systems) (protein, listed as Homo sapiens)
chain: MIPGNRMLMVVLLCQVLLGGASHASLIPETGKKKVAEIQGHAGGRRSGQSHELLRDFEATLLQMFGLRRRPQPSKSAVIPDYMRDLYRLQSGEEEEEQIHSTGLEYPERPASRANTVRSFHHEEHLENIPGTSENSAFRFLFNLSSIPENEVISSAELRLFREQVDQGPDWERGFHRINIYEVMKPPAEVVPGHLITRLLDTRLVHHNVTRWETFDVSPAVLRWTREKQPNYGLAIEVTHLHQTRTHQGQHVRISRSLPQGSGNWAQLRPLLVTFGHDGRGHALTRRRRAKRSPKHHSQRARKKNKNCRRHSLYVDFSDVGWNDWIVAPPGYQAFYCHGDCPFPLADHLNSTNHAIVQTLVNSVNSSIPKACCVPTELSAISMLYLDEYDKVVLKNYQEMVVEGCGCR
As to B1, the ALP enzyme activity entry in data set [1] is “increase”. For the same molecule, the “differentiation ability into osteoblasts” value in data set [2] is reported as “efficient in improving the differentiation ability”. Further, in data set [3], the bone mineral deposition entry is listed as “increase”.

For the origin of these results see US11059875B2, “Composition for preventing or treating cardiofaciocutaneous syndrome” (Korea Advanced Institute of Science and Technology, priority 2018, dated 2021).
